Experimental data: patent US20050260183A1, “Treatment of surfaces populated by bacteria with a lucilia sericata extract” (priority 2002, published 2005)
Where two headings read alike, the source gives them in different places. Ends that are not written are not given here.

Legend:
[1] = test system: E. coli D31; format: cell-based
[2] = test system: OdDHL; format: biochemical, Pseudomonas aeruginosa
[3] = test system: BHL; format: biochemical, Pseudomonas aeruginosa

With “Cecropin B (KWKVFKKIEKMGRNIRNGIVKAGPAIAVLGEAKAL; ends and bridges not checked; UniProt P01508 27-61, looked up) [Cecropin B (Sigma), anti-microbial standard]” the antimicrobial plaque diameter ([1]; 2 μl Cecropin B at 10 μg/ml) was 4.25 mm and the antimicrobial plaque diameter ([1]; 2 μl Cecropin B at 100 μg/ml) was 8 mm.
In the case of `O=S(=O)(F)Cc1ccccc1` [PMSF, phenylmethanesulphonyl fluoride], the “effect of inhibitor on OdDHL degradation by ES” value [2] is reported as “inhibited” and the “effect of pre-incubation of ES with inhibitor on BHL degradation” value [3] is reported as “degradation was prevented”.
